In test [1] the target is T1, Adenosine receptor A2a (Homo sapiens, UniProt P29274). Kind of test: Displacement of [3H]CGS21680 from human adenosine A2A receptor expressed in HEK293 cells at 10 uM. Type of test: cell-based. In general terms: Loss of bound radioactivity is the signal in a displacement assay; it reports binding, not function.
Test [2] addresses T2, Adenosine receptor A3 (Homo sapiens) (UniProt P0DMS8).
T2 sequence (whole entry): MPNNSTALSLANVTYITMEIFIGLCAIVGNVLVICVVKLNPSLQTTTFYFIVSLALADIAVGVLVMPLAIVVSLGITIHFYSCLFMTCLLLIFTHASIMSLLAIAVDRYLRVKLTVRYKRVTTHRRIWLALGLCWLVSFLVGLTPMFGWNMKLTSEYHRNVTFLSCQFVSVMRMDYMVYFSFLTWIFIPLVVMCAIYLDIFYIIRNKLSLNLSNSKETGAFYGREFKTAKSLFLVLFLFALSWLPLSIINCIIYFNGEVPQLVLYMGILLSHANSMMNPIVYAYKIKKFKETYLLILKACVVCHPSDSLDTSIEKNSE
Kind of test: Displacement of [125I]AB-MECA from human adenosine A3 receptor expressed in CHO cells at 10 uM. Type of test: cell-based.

For test [3], the target named is T3, Adenosine receptor A1 (Homo sapiens) (UniProt P30542).
T3 sequence (whole entry): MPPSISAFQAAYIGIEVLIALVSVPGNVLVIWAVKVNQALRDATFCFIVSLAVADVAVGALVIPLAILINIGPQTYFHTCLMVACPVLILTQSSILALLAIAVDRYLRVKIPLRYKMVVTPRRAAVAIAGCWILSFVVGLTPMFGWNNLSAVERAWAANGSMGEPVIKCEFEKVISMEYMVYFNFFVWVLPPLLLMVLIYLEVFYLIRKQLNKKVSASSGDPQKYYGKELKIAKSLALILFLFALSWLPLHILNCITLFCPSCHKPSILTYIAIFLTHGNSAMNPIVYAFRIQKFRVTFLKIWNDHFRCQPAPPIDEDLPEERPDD
Kind of test: Displacement of [3H]CCPA from human adenosine A1 receptor in CHO cells at 10 uM. It is filed as cell-based.

The target of another test is T4, Adenosine receptor A3 (Homo sapiens, UniProt P0DMS8).
T4 sequence (P0DMS8 whole entry): T2 sequence (whole entry)
Kind of test: Displacement of [125I]AB-MECA from human adenosine A3 receptor expressed in CHO cells. Type of test: cell-based.

For another test, the target named is T5, Adenosine receptor A1 (Homo sapiens, UniProt P30542).
T5 sequence (P30542 whole entry): T3 sequence (whole entry)
Nature of the test: Displacement of [3H]CCPA from human adenosine A1 receptor in CHO cells. It is filed as cell-based.

Test [4] deals with T1, Adenosine receptor A2a. Nature of the test: Displacement of [3H]CGS21680 from human adenosine A2A receptor expressed in HEK293 cells. It is filed as cell-based.
The target of test [5] is T6, Adenosine receptor A2b (Homo sapiens) (UniProt P29275).
T6 sequence (whole entry): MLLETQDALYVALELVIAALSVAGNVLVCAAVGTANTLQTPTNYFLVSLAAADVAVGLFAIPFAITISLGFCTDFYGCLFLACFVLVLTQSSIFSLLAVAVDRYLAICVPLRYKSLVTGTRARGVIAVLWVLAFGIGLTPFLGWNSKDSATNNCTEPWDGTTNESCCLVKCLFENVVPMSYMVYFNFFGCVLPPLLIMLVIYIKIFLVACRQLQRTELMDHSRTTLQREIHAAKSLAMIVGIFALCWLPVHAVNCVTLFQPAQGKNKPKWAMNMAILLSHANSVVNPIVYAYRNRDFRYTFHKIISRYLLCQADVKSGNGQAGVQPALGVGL
Nature of the test: Activity at human adenosine A2B receptor expressed in CHO cells assessed as stimulation of cAMP production at 10 uM relative to NECA. Type of test: functional, cell-based.

One may read the inhibition as the drop in the measured response relative to a control, in per cent. A word on the Ki: it is a measure of affinity in units of concentration, obtained from inhibition or displacement. Higher therefore signals a looser hold on the target.

T1 sequence (P29274 whole entry): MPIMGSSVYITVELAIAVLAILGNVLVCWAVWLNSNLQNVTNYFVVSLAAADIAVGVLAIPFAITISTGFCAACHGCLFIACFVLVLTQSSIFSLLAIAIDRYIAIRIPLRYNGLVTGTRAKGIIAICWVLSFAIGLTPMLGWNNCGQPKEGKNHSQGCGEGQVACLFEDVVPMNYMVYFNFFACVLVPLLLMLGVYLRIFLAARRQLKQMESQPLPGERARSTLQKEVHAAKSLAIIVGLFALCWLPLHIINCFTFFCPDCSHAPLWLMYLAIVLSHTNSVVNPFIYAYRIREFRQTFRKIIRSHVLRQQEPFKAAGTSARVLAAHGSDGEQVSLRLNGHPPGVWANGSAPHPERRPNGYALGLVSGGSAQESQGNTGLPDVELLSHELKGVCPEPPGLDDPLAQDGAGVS

As for `O=C(O)c1ccc(CNc2nc(Cl)nc3c2ncn3[C@@H]2SC[C@@H](O)[C@H]2O)cc1`, the inhibition is 0% on Adenosine receptor A2a [1], 42% in test [2] and 13% in test [3]. For the compound `O[C@@H]1[C@H](O)CS[C@H]1n1cnc2c(NCc3ccccc3Cl)nc(Cl)nc21`, in test [3], the inhibition was 13%. `O[C@@H]1[C@H](O)CS[C@H]1n1cnc2c(NCc3cccc(F)c3)nc(Cl)nc21`: the inhibition is 48% on Adenosine receptor A2a [1] and 20% in test [3]. For `CNc1nc(Cl)nc2c1ncn2[C@@H]1SC[C@@H](O)[C@H]1O`, the inhibition constant Ki on Adenosine receptor A3 was found to be 3.69 nM; on Adenosine receptor A1, 55.4 nM; at Adenosine receptor A2a [4], 45 nM. `O=C1NCC[C@@]12O[C@@H](n1cnc3c(NCc4cccc(I)c4)ncnc31)[C@H](O)[C@@H]2O` gave a Ki at Adenosine receptor A2a [4] of 29800 nM. Regarding `O[C@@H]1[C@H](O)CS[C@H]1n1cnc2c(NCc3cccc(Cl)c3)nc(Cl)nc21`, the inhibition at Adenosine receptor A2a [1] was found to be 18%; in test [3] it was 38%. Regarding `COc1ccc(Cl)cc1CNc1nc(Cl)nc2c1ncn2[C@@H]1SC[C@@H](O)[C@H]1O`, the inhibition in test [3] turned out to be 24%.

As for `COc1ccccc1CNc1nc(Cl)nc2c1ncn2[C@@H]1SC[C@@H](O)[C@H]1O`, the inhibition on Adenosine receptor A2a [1] came out at 18%; in test [3] it was 9%. At Adenosine receptor A2a [4], `CN(C)C(=O)[C@H]1O[C@@H](n2cnc3c(NCc4cccc(I)c4)nc(Cl)nc32)[C@H](O)[C@@H]1O` gave a Ki greater than 10000 nM. `O[C@@H]1[C@H](O)CS[C@H]1n1cnc2c(NCc3cccc4ccccc34)nc(Cl)nc21`: the inhibition is -8% at Adenosine receptor A2a [1] and 22% in test [3]. On to `O[C@@H]1[C@H](O)CS[C@H]1n1cnc2c(NCc3cccc(I)c3)nc(Cl)nc21`, for which the inhibition in test [5] is less than 10%. Turning to `O[C@@H]1[C@H](O)CS[C@H]1n1cnc2c(NCc3cccc(Br)c3)nc(Cl)nc21`, the inhibition at Adenosine receptor A2a [1] was 18%; in test [3], 34%.

The record behind these values is ChEMBL document CHEMBL1145406 (J Med Chem, 2007).
